Reference: patent publication US20040053966A1, “Chemical derivatives and their application as antitelomerase agent” (Aventis Pharms S.A., priority 1999, published 2004)
Where a name gives a salt, the structure may show the parent alone.

Legend:
[1] = tested on: G-quadruplex of oligonucleotide GGGTTAGGGTTAGGGTTAGGG (3.5 repeats of the human telomeric motif); assay: G-quadruplex stabilizing activity, fluorescence Tm (FAM+DABCYL oligonucleotide); format: binding; settings: test product 1 μM, oligonucleotide 0.2 μM, 0.1 M LiCl, 10 mM cacodylate pH 7.6; reference without product 44° C.
Excerpt: The G-quadruplex stabilizing activity may be determined by a method using the formation of a complex with fluorescein of which the experimental protocol is described below. Oligonucleotides […] The oligonucleotide FAM+DABCYL carries the catalogue reference OL-0371-0802. It has the sequence: […] The fluorescein is attached to the 5' end, the DABCYL to the 3' end, by the chemical arms described by Eurogentec. The concentration of the samples is checked by spectrophotometry, recording the absorbance spectrum between 220 and 700 nm and using the molar extinction coefficient provided by the supplier. Buffers All the experiments were carried out in a 10 mM sodium cacodylate buffer pH 7.6 containing 0.1 M lithium chloride (or sodium chloride). The absence of fluorescent contamination in the buffer was checked beforehand. The fluorescent oligonucleotide is added at the final concentration of 0.2 μM. Study of Fluorescence All the measurements of fluorescence were carried out on a Spex Fluorolog DMlB apparatus, using an excitation line width of 1.8 nm and an emission line width of 4.5 nm. The samples are placed in a microquartz cuvette of 0.2×1 cm. The temperature of the sample is controlled by an external water bath. The oligonucleotide alone was analysed at 20, 30, 40, 50, 60, 70 and 80° C. The emission spectra are recorded using an excitation wavelength of 470 nm. The excitation spectra are recorded using either 515 nm or 588 nm as emission wavelength. The spectra are corrected for the response of the instrument by reference curves. A high extinction (80-90%) of the fluorescence of fluorescein at room temperature is observed, in agreement with an intramolecular folding of the oligonucleotide at 20° C. in the form of a G-quadruplex, which induces juxtaposition of its [NT] ends which are respectively linked to fluorescein and to DABCYL. This juxtaposition causes an already-described phenomenon of extinction of fluorescence which is used for “molecular beacons”. Fluorescence Tm: […] The samples are then allowed to incubate for at least 1 hour at 20° C. before each measurement. The use of longer incubation times (up to 24 hours) has no influence on the result obtained. Each experiment allows the measurement of only one sample. The latter is first incubated at an initial temperature of 20° C., heated to 80° C. over 38 minutes, left for 5 minutes at 80° C. and then cooled to 20° C. over 62 minutes. During this time, the fluorescence is measured simultaneously at two emission wavelengths (515 nm and 588 nm) using 470 nm as excitation wavelength. A measurement is carried out every 30 seconds. The temperature of the water bath is recorded in parallel, and the fluorescence profile as a function of the temperature is reconstituted from these values. The fluorescence profiles are then normalized between 20° C. and 80° C., and the temperature for which the intensity of emission at 515 nm is the mean of those at high and low temperature is called Tm. Under these conditions, the Tm of the reference sample without addition of product is 44° C. in a lithium chloride buffer. This temperature is increased to more than 55° C. in a sodium chloride buffer. The addition of a G-quadruplex-stabilizing compound induces an increase in the Tm. This increase is judged to be significant if it is greater than […].

[2] = tested on: human telomerase (HL60 cell extract); assay: Antitelomerase activity, TRAP (extension of oligonucleotide TS and PCR amplification); format: biochemical; settings: telomerase extract from HL60 cells
A549 cells = assay: Cytotoxic activity on human tumour line A549 (neutral red); format: cell-based; settings: Homo sapiens, A549, 96 h, 96 hours incubation, read-out: Cytotox. A549 IC50
Description: The Cytotoxic Biological Activity on Human Tumour Lines is Determined According to the Following Experimental Protocol:
The cells at the exponential growth phase are trypsinized, washed in 1× PBS and are inoculated in 96-well microplates (Costar) in an amount of 4×10^4 cells/ml for A549 and of 1.5×10^4 cells/ml (0.2 ml/well) and then incubated for 96 hours in the presence of variable concentrations of product to be studied (10, 1, 0.1 and 0.01 μg/ml, each point in quadruplicate). 16 hours before the end of the incubation, 0.02% final of neutral red is added to each well. At the end of the incubation, the cells are washed with 1× PBS and lysed with 1% sodium lauryl sulphate. The cellular incorporation of the dye, which reflects cellular growth, is evaluated by spectrophotometry at a wavelength of 540 nm for each sample with the aid of a Dynatech MR5000 reading apparatus.
(compound value−blank value/cell control value−blank value)×100.

## CNc1nc(Nc2ccc3nc(C)cc(N)c3c2)nc(Nc2ccc3nc(C)cc(N)c3c2)n1 [Example 4, 2-methylamino-bis-4,6-[(4′-amino-6′-quinaldinyl)amino]triazine trihydrochloride]
[1]
  FLUORESCENCE Tm: 48° ° C.
[2]
  IC50: 510 nM
A549 cells
  IC50: 3100 nM
